Assays:
Format in all cases: cell-based
Adenosine 2a receptor = biological target: T1, Adenosine 2a receptor (Homo sapiens, UniProt P29274); test: Agonist activity against adenosine 2a receptor subtype (CHO cells, cAMP response element/SPAP reporter); conditions: EC50 ratio to NECA; transfected CHO cells, basal cAMP reflected by SPAP
T1 construct: expressed in transfected cells; host or cells: Chinese hamster ovary (CHO) cells, co-transfected with a CRE-SPAP reporter
Procedure, shortened: (§1)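 CHO cells expressed the human receptor plus a cAMP response element–driven SPAP reporter. Agonism was measured as SPAP change from forskolin-enhanced cAMP for A1 and A3, and from basal cAMP for A2a. EC50 is expressed as a ratio to that of NECA.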

Adenosine 3 receptor = biological target: T2, Adenosine 3 receptor (Homo sapiens, UniProt P0DMS8); test: Agonist activity against adenosine 3 receptor subtype (CHO cells, forskolin-enhanced cAMP, SPAP reporter); conditions: EC50 ratio to NECA; transfected CHO cells, forskolin-enhanced cAMP reflected by SPAP
T2 construct: expressed in transfected cells; host or cells: Chinese hamster ovary (CHO) cells, co-transfected with a CRE-SPAP reporter
T2 sequence (P0DMS8 1-318): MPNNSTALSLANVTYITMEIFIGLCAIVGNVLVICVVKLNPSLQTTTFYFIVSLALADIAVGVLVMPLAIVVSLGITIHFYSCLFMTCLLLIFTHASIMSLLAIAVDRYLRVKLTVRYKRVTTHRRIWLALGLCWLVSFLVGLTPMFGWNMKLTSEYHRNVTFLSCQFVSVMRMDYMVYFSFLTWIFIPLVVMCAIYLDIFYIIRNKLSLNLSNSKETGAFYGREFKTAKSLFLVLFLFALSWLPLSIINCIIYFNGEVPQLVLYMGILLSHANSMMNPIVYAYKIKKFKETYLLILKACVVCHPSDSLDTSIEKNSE
Procedure, shortened: as §1

Adenosine 1 receptor = biological target: T3, Adenosine 1 receptor (Homo sapiens, UniProt P30542); test: Agonist activity against adenosine 1 receptor subtype (CHO cells, forskolin-enhanced cAMP, SPAP reporter); conditions: EC50 ratio to NECA; transfected CHO cells, forskolin-enhanced cAMP reflected by SPAP
T3 construct: expressed in transfected cells; host or cells: Chinese hamster ovary (CHO) cells, co-transfected with a CRE-SPAP reporter
T3 sequence (P30542 1-326): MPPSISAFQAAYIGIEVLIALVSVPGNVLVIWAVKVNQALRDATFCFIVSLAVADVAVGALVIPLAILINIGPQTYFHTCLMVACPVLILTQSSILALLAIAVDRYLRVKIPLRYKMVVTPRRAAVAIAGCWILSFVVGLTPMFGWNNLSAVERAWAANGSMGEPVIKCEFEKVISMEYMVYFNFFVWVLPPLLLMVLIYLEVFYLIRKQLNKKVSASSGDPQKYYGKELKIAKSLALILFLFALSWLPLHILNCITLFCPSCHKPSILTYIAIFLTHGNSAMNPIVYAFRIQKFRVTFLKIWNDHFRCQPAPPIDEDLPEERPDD
Procedure, shortened: as §1

T1 sequence (P29274 whole entry): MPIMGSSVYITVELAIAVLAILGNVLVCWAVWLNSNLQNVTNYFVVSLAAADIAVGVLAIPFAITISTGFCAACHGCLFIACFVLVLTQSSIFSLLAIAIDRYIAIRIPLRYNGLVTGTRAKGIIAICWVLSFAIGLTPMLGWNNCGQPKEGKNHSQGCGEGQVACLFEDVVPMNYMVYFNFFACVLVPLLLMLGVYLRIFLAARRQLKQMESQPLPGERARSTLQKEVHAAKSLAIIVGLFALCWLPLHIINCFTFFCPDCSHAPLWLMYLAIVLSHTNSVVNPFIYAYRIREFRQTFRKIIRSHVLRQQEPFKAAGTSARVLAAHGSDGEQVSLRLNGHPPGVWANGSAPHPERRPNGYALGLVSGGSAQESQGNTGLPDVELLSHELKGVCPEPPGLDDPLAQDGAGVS

(2S,3S,4R,5R)-2-(3-Ethyl-isoxazol-5yl)-5-[6-(3-iodo-benzylamino)-2-(2-piperidin-1-yl-ethylamino)-purin-9-yl]-tetrahydro-furan-3,4-diol diformate [Example 65]
A2a (EC50 values as a ratio of that of NECA) (Adenosine 2a receptor): 4.74 | A3 (EC50 values as a ratio of that of NECA) (Adenosine 3 receptor): >262 | A1 (EC50 values as a ratio of that of NECA) (Adenosine 1 receptor): 128.27
